Settings: for mass density: Vibrating tube method; for vapor or sublimation pressure: Closed cell (Static) method; for viscosity: Capillary tube (Ostwald / Ubbelohde) method; for surface tension liquid-gas: Capillary rise

FC(F)(F)/C=C/Cl [(E)-1-chloro-3,3,3-trifluoroprop-1-ene]
Settings | Critical temperature [K] | mass density [kg/m3] | vapor or sublimation pressure [kPa]
243.34 K, Liquid | – | 1384.7 | –
243.7 K, Liquid | – | 1383.98 | –
248.07 K, Liquid | – | 1371.38 | –
251.12 K, Liquid | – | 1367.4 | –
253.56 K, Liquid | – | 1362.51 | –
255.66 K, Liquid | – | 1360.3 | –
263.09 K, Liquid | – | – | 29.85
263.36 K, Liquid | – | 1341.34 | –
271.16 K, Liquid | – | 1323.65 | –
272.95 K, Liquid | – | – | 44.51
273.1 K, Liquid | – | – | 47.57
273.17 K, Liquid | – | 1319.65 | –
282.95 K, Liquid | – | – | 71.41
283.08 K, Liquid | – | – | 72.74
283.26 K, Liquid | – | 1296.48 | –
290.16 K, Liquid | – | 1280.22 | –
291.98 K, Liquid | – | 1276.01 | –
293.05 K, Liquid | – | – | 107.99
293.08 K, Liquid | – | – | 106.52
293.21 K, Liquid | – | 1273.37 | –
302.85 K, Liquid | – | – | 148.21
303.01 K, Liquid | – | – | 152.1
312.25 K, Liquid | – | – | 203.33
312.93 K, Liquid | – | – | 210.08
321.85 K, Liquid | – | – | 279.37
323 K, Liquid | – | – | 282.13
332.93 K, Liquid | – | – | 382.66
342.92 K, Liquid | – | – | 502.28
352.84 K, Liquid | – | – | 641.35
Liquid, Visual observation in an unstirred cell | 438.75 | – | –

Liquid
Settings | viscosity [mPa·s]
270.24 K, 100 kPa | 0.705
292.03 K, 150 kPa | 0.506
314.25 K, 300 kPa | 0.3851
336.37 K, 500 kPa | 0.294
353.52 K, 800 kPa | 0.2369
379.56 K, 1350 kPa | 0.1763

Settings | surface tension liquid-gas [mN/m]
273.15 K | 16.48
298.15 K | 12.68
323.15 K | 9.01

From the NIST ThermoML archive (doi:10.1021/je300776s)
